A word on the melting point: it is the temperature of the solid-liquid transition. The compound `Cc1c(CC(=O)NCCCO[N+](=O)[O-])cc(-c2ccc(S(C)(=O)=O)cc2)n1-c1ccc(F)cc1` yielded a melting point of 127 °C.
Compound `NC(=S)N1CCN(C=O)CC1` gave a melting point of 118 °C.
The value for `CCOC(=O)CCc1ccc2[nH]c(-c3cccnc3)c(C)c2c1` was above 275 °C.
With `C=Cc1[nH]c(=O)c2c(ccc3nc(Nc4c(Cl)cccc4Cl)n(C)c32)c1C` the figure was above 300 °C; with `CC1=C(C)N(C(=O)Oc2ccccc2)C(c2ccc(C)cc2)C=C1` (stereo not given), 106 °C; with `CCCn1nc2c(N)nc3ccccc3c2c1CC1(O)CCOCC1`, 209 to 211 °C.
The value for `Cc1ccc(C(=O)c2ccc(F)cc2)s1` was 68 °C; that for `CC(C)=CCCC(C)CCCC(C)=CC=CC(C)=CC(=O)O` (stereo not given) was 60 to 62 °C.
As to `COC(=O)C(C)NC(=O)c1cc2cc(Cl)ccc2[nH]1` (single isomer, unassigned; (+)), the melting point was in the range of 199 to 201 °C.
The value for `COc1ccc(C(=O)Oc2cccc3cc4cccc(OC(=O)c5ccc(OC)cc5)c4c(OC(=O)c4ccc(OC)cc4)c23)cc1` was 260 °C; that for `CCOC1OC(O)C(F)(F)C(F)(F)C1(F)F` (stereo not given) was 84 to 86 °C; that for `COc1ccc(Cc2cc(C3CCN(C(=O)c4ccccc4)CC3)nc(N)n2)cc1` was 170 to 171 °C.
With `CCCCCCCCCCCCC1=C(Br)C(=O)c2ccccc2C1=O` the figure was 98 to 100 °C; with `CC1(C)CCC(C)(C)c2cc(N(Cc3cccs3)C(=O)Nc3ccc(C(=O)O)cc3)ccc21`, 167 to 170 °C; with `NS(=O)(=O)c1nnc(NC(=O)c2ccccc2)s1`, 250 °C.
With `COC(=O)[C@@H]1CSCN1S(=O)(=O)c1ccc(Cl)c(CBr)c1Cl` the figure was 48 to 50 °C.
Take `CC1CCN(Cc2cc(COc3cccc4c3CN(C3CCC(=O)NC3=O)C4=O)on2)CC1` (stereo not given): the melting point is 168 to 170 °C.
For `CC(C)CC1=CC(c2cccc([N+](=O)[O-])c2)C2=C(CCCC2=O)N1` (stereo not given), the melting point fell in the range of 158 to 160 °C.
With `O=C(O)C1=Cc2cc(I)ccc2NC1C(F)(F)F` (stereo not given) the figure was 188 to 192 °C; with `COCCOc1ccc(I)cc1`, 36 to 37 °C.
Turning to `CN(C)C=CC(=O)c1c[nH]c2ccccc12`, the melting point is 239 to 245 °C.
With `CCCCOc1cc(/C=C(\OCC)C(=O)O)ccc1OCCc1ccc(OS(C)(=O)=O)c(Cl)c1` the figure was 113 °C; with `Clc1ccc(-c2ccc(Br)cc2)nn1`, 201 to 203 °C; with `Nc1cc(F)ccc1C(=O)NCc1ccc(Br)cc1F`, 120 to 121 °C.
The value for `CSC(=S)N1C(CO)Cc2c([nH]c3ccccc23)C1CO` (stereo not given) was 179 to 180 °C; that for `C(=C\c1ccc2c(c1)COC(N[C@@H]1CCc3ccccc31)=N2)/c1cccnc1` was 132 °C.
With `CCCc1[nH]c2cc(C(=O)OC)ccc2c1C(=O)COC` the figure was 127 to 129 °C; with `COc1nc(Cl)nc2c1ncn2C1CC(O)C(CO)O1` (stereo not given), 141 to 142 °C; with `O=C(Nc1ccccc1-n1cccn1)c1cccc2c1C(=O)c1ccccc1-2`, 164 to 166 °C.
Compound `CC(C)(C)COc1cccc(C[C@@H](NC(=O)c2cccc3c2C=CCCC3)[C@@H](O)c2cccc(Cl)c2)c1` (racemic) displayed a melting point of 128 to 129 °C.
With `Cc1nc(NCc2ccccc2)[nH]c(=O)c1CCO` the figure was 187 °C.
With `COc1ccc2c3c1OC1C(=O)CCC4(OC)C(C2)N(C)CCC314` (stereo not given) the figure was 140 to 142 °C; with `CC(C)(C)c1cc(Cl)c2c(c1)-c1ccccc1P(=O)(O)O2`, 240 °C.
As to `COC(C(=O)O)c1c(Cl)cccc1Cl` (stereo not given), the melting point was in the range of 95 to 96 °C.
`Clc1cc2nc3cc4ccccc4[nH]c-3c2cc1Br` had a melting point above 246 °C.
As to `Cc1ccc2c(c1)c1cc(-c3ccc(Cl)cc3Cl)c(=O)n(C)c1n2CC#N`, the melting point worked out at 270 °C.
The value for `CC(=O)NC[C@H]1CN(c2ccc(N3CCC(=C(C#N)C#N)CC3)c(F)c2)C(=O)O1` was 158 to 160 °C; that for `CS(=O)(=O)c1ccc(-c2cc(CCCC(=O)O)nn2-c2ccc(C(F)(F)F)cc2)cc1` was 155 to 156 °C.
`COc1ccc(-c2cc(CO)c(=O)n(CCCc3ccc(F)cc3)n2)cc1F`: the melting point was in the range of 130 to 133 °C.
The value for `N#Cc1ccc2c(c1)Sc1ccccc1O2` was 215 °C.
With `CO/C=C(/C(=O)OC)c1ccccc1Oc1nc(Cl)nnc1Cl` the figure was 140 to 142 °C; with `CCC1(Cc2ncn(C(c3ccccc3)(c3ccccc3)c3ccccc3)c2C)CCc2c(C)c3ccccc3n2C1=O` (stereo not given), 83 to 98 °C.
With `CCOC(=O)c1cc2cc(N3CCN(C(=O)OC(C)(C)C)CC3)ccc2o1` the figure was 116 to 118 °C.
Regarding `CC(C)(C)OC(=O)N1CCC(=O)N(CCCC=O)CC1`, the melting point lay within 86 to 87 °C.
With `COC(=O)C(=CN(C)C)N(C)c1nc(-c2ccc(Cl)cc2)cs1` the figure was 177 to 178 °C; with `Cc1cccc(Oc2cccc(C#CC(C)N(O)C(N)=O)c2)n1` (stereo not given), 133 to 135 °C; with `O=C(Nc1ccccn1)C(=O)OC1CCCCC1`, 62 to 64 °C.
The value for `COC(=O)C1=Cc2cc(Br)ccc2N(CC2(C)OCCO2)CC1` was 96 to 99 °C; that for `CN1CCC(C#N)(c2ccc(Cl)cc2F)CC1` was 85 to 87 °C.
The value for `CCN1CCN(CCN2CC[C@H](NC(=O)c3cc(Cl)c(N)cc3OC)[C@H](OC(=O)N3CCCC3)C2)C1=O` (relative stereo) was 214 °C; that for `CC#CCOc1cc2ncc(C#N)c(Nc3cc(OC)c(Cl)cc3Cl)c2cc1OC` was 193 to 197 °C.
As for `CCOC(=O)NC(=S)NC(C)C`, the melting point fell in the range of 52.5 to 54 °C.
With `CNCC(O)c1cc(C(F)(F)F)nc2c(C(F)(F)F)cccc12` (stereo not given) the figure was 158 °C; with `Cc1ccc(C(=O)c2ccc(C(=O)c3ccc(C)cc3)cc2)cc1`, 178 to 187 °C; with `Cc1ccc(S(=O)(=O)OCCOc2ccc(OC(F)(F)F)cc2)cc1`, 35 to 36 °C.
The value for `CC(=O)N1CCN(c2nc(Nc3ccc(F)cc3F)c(C(=O)O)cc2F)CC1` was 243 to 244 °C; that for `COc1cc(CC(=O)NCCCc2ccc(C)c(C)c2)ccc1OCCNC(=O)c1ccccc1OC(C)=O` was 135 to 137 °C; that for `CC(=O)c1nn(-c2c(Cl)cc(C(F)(F)F)cc2Cl)cc1SC(F)(F)F` was 89 to 91 °C.
With `CCn1c2cc(C)ccc2c2c3ccccc3ccc21` the figure was 123 to 124 °C.
Consider `COC(=O)c1cccc(-c2nnc(-c3ccc(-c4cccc(C)c4)cc3)o2)c1`, for which the melting point is 147 to 148 °C.
The value for `CC(=O)Nc1ccc2c(c1)CCC(CO)O2` (stereo not given) was 156 °C; that for `Cc1ccccc1S(=O)(=O)NC(=O)n1sc(Cl)cc1=O` was 82 to 84 °C; that for `CCCCCCCCCCCCCCCCCC(=O)Nc1ccn(C2OC(CO)C(O)C2O)c(=O)n1` (stereo not given) was 147 to 151 °C.
As to `O=C1c2cc([N+](=O)[O-])ccc2CCC1Br` (stereo not given), the melting point was 94 to 96 °C.
With `Cn1c(=O)c2c(nc(C=Cc3cccc(N(C(=O)OC(C)(C)C)C(=O)OC(C)(C)C)c3)n2C)n(C)c1=O` the figure was 175 to 177 °C.
With `CCOc1ccc(OCCCc2cn(-c3ccc(C(F)(F)F)cn3)nc2OCC)c(CCC(=O)O)c1` the figure was 104 to 105 °C; with `COc1cc2nc(N3CCN(C(=O)C=Cc4cc(OC)c(OC)c(OC)c4)CC3)nc(N)c2cc1OC`, 141 to 146 °C.
With `Cc1nc2c3c(c(C(=O)N4CC4)cc2n1C)CCC(c1ccccc1)O3` (stereo not given) the figure was 201 to 204 °C; with `CC(O)(c1ccccc1)c1cc(Cl)ccc1O` (stereo not given), 106 °C.
For `CCOC(=O)C1CC(=O)c2c(C)c(O)c(C)c(C)c2O1` (stereo not given), the melting point lay in the range of 120 to 121 °C.
With `CC(O)(CC(=O)O)c1ccc(-c2ccc(F)cc2)cc1` (stereo not given) the figure was 81 to 82 °C.
In the case of `COc1ccc(CN(CCCNc2nccc(=O)[nH]2)c2ccccn2)cc1`, the melting point lay within 63 to 80 °C.
With `C[C@H](NC(=O)COCCNC(=O)C12CC3CC(CC(C3)C1)C2)C(=O)N[C@H](CCC(=O)O)C(N)=O` the figure was 84 to 86 °C; with `CCCCCCc1cc2c(s1)NC(=O)CN=C2c1ccccc1Cl`, 141 to 143 °C.
The value for `O=C(Cc1cccc2ccccc12)Nc1cc([C@H]2C[C@@H](NC(=O)CC3CC3)C2)[nH]n1` was 93.2 °C; that for `CN1C(=O)CN(c2cccc(C#N)c2)NC1=O` was 174 to 178 °C; that for `COc1ccc(COC(=O)CC(=O)Oc2ccc3sc4nc(-c5ccc(OC)cc5)cn4c3c2)cc1` was 158 to 160 °C.
With `CCOC(=O)c1ccc(C(F)(F)F)c(OC2CCOC2)n1` (stereo not given) the figure was 45 to 45.5 °C.
`CNC(=O)C(NC(=O)c1cn(C)nc1C(F)(F)F)C(CO)c1ccccc1` (stereo not given) yielded a melting point of 194 °C.
With `CCCCN(C(=O)c1cnc(N2CCNC2=O)nc1N)c1cccc(C(F)(F)F)c1` the figure was 234 to 235 °C.
With `CC(C)NC(=O)N1C(=O)Cc2ccccc21`, the melting point was in the range of 84 to 85.5 °C.
`CC(=O)N1CCc2c(c3cccc4c3n2CCS4)C1` came in with a melting point of 161 to 163 °C.
With `CN1CCN(c2ccc(-c3cnc4[nH]cc(C(=O)C5(C)CCCCC5)c4n3)cc2)CC1` the figure was 225 to 226 °C; with `CCOC(=O)c1cc(C)nn1C`, 150 to 154 °C; with `O=[N+]([O-])c1ccc2c(c1)ncn2-c1ccccc1`, 129 to 131 °C.
The value for `O=S(=O)(NCCCCCCNc1nsc2nccn12)c1cccc2ccccc12` was 95 to 97 °C.
With `O=C1c2ccc([N+](=O)[O-])cc2C(=O)N1CCSc1ccccc1` the figure was 120 to 121 °C; with `C[Si](C)(C)c1cc(Cl)sc1C(=O)NCCCl`, 68 to 72 °C.
With `COC(=O)c1cc(N)n[nH]1`, the melting point was found to be 134 °C.
With `CC(=O)OC1CSC(Oc2ccc(-c3ccncc3)nc2F)C(OC(C)=O)C1OC(C)=O` (stereo not given) the figure was 164 °C.

Source of the values: a melting point compilation (Tetko et al.; mined from patent text by program, amines drawn as free bases though some values may be those of a salt).
